Experiment [1] concerns human lung cancer NCI-H358 cell xenograft. The experiment can be described thus: In vivo pharmacodynamics on human lung cancer NCI-H358 cell xenograft tumor model. The arrangement: species or system BALB/c nude mice. Here is the method: • BALB/c nude mice, 6-8 weeks old, female, purchased from Shanghai Xipuer-Bikai Experimental Animal Co., Ltd. 6.3.2 Cell Culture and Cell Suspension Preparation • 1) MiaPaca-2 cells were taken out from the cell bank and resuscitated with DMEM medium (DMEM+10% FBS), the resuscitated cells were placed in a cell culture flask (labeled with cell type, date, name of cultured person, etc.) and cultured in a CO2 incubator (incubator temperature was 37° C., CO2 concentration was 5%) (the method of resuscitating NCI-H358 cells was the same as MiaPaca-2 cells in test embodiment 5, and the culture medium was changed to RPMI-1640 medium). • 2) Passage was conducted every three to five days, and the cells was continued to be cultured in CO2 incubator after passage. The process was repeated until the cell count meets the in vivo pharmacodynamic requirements. • 3) MiaPaca-2 cells were collected and counted by automatic cell counter, according to the counting results, the cells were re-suspended with PBS and Matrigel (ratio was 1:1) to make cell suspension (cell density was 5×10^7/mL), then placed in a ice box for use (NCI-H358 cells were re-suspended with PBS without adding Matrigel, cell density was 1×10^8/mL). 6.3.3 Sample Preparation: • 1) Solvent: solvent (0.5% CMC-Na+1% Tween 80), storage condition: 4° C.
0.5 g of CMC-Na was weighted, dissolved in ddH2O, then 1.0 mL of Tween 80 was added and the mixture was stirred to mix well, and the volume was finally set to 100 mL. • 2) Compound to be tested (10 mg/kg) was prepared:
8.42 mg of AMG510 compound was weighted, 8.260 mL of solvent was added, a uniform solution was obtained by ultrasound, vortexing and stirring.
7.81 mg of embodiment compound 165-1 was weighted, 7.654 mL of solvent was added, a uniform solution was obtained by ultrasound, vortexing and stirring.
• 1) Before inoculation, nude mice were labeled with disposable universal ear tags of rats and mice; • 2) when inoculating, the cell suspension was mixed well, 0.1-1 mL cell suspension was extracted with a 1 mL syringe, bubbles were removed, and then the syringe was put on an ice bag for later use; • 3) the nude mice was held with left hand, the right back of nude mice near the right shoulder (inoculation site) was disinfected with 75% alcohol, and inoculation was started after 30 seconds; • 4) the experimental nude mice were inoculated in turn (each mouse was inoculated with 0.1 mL of cell suspension); 6.3.4 Tumor-Bearing Mouse were Measured, Grouped, and Administered: • 1) According to the tumor growth, the tumor was measured on the 18th day after inoculation, and the tumor size was calculated. tumor volume (mm^3)=length (mm)×width (mm)×width (mm)/2 Tumor volume calculation: • 2) The tumor-bearing mice were grouped according to their body weight and tumor size using a randomized grouping method. • 3) According to the grouping results, the administration of the test drug was started (administration method: oral administration; administration dose: 10 mg/kg; administration volume: 10 mL/kg; administration frequency: once a day; administration period: 21 days; solvents: 0.5% CMC/1% Tween 80). • 4) The tumor was measured and weighed twice a week after the test drug was started to be given. • 5) After the experiment, all animals were euthanized. • 6) Data was processed with software such as Excel. […]

In experiment [2] the test system is NCI-H358 cells (KRAS G12C mutant cell line). Briefly: Inhibition of NCI-H358 cell proliferation (CellTiter-Glo, 72 h). The experiment is classed as cell-based, human. As to conditions: Homo sapiens. The essentials: (§1)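 Cells were seeded overnight at 37 °C, 5% CO2, then exposed to serially diluted compound (DMSO/medium) alongside a solvent control for 72 h. Viability was read by CellTiter-Glo luminescence, and IC50 was derived by nonlinear regression of inhibition rate against concentration.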

Experiment [3] has as its system Mia PaCa-2 cells (KRAS G12C mutant cell line). The experiment can be described thus: Inhibition of Mia PaCa-2 cell proliferation (CellTiter-Glo, 72 h). The experiment is classed as cell-based, human. To be noted: Homo sapiens. The method, boiled down: as §1
For experiment [4], the target named is T1, human KRAS G12C protein (Homo sapiens, UniProt P01116, G12C).
T1 construct: purchased Beijing SinoBiological Co., Ltd. 12259-H07E2
Briefly: Thermal shift: melting temperature of KRAS G12C protein. The experiment is classed as binding. The essentials: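 5.37 μM (final) human KRAS G12C in […] HEPES pH 7.5, 1 mM DTT, 150 mM NaCl, 5×SYPRO Orange, incubated 1 h at room temperature in the dark. Melt curve run from 25 to 95° C at 0.03° C/s. ΔTm = treated Tm minus DMSO control Tm.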

For experiment [5], the system named is phosphorylated ERK in KRAS G12C mutant cells Mia PaCa-2. The experiment can be described thus: Inhibition of phosphorylated ERK level in Mia PaCa-2 cells (LANCE Ultra). The experiment is classed as cell-based. As to conditions: Homo sapiens, 2 hours, read-out: Mia PaCa-2 pERK IC50. The source says: As a preferred embodiment of the present disclosure, the method for detecting the inhibitory activity of phosphorylated ERK level is as follows: through cell culture, adding different concentrations of compound solutions to the cultured cells, continuing the culture for a period of time, lysing the cells, followed by centrifugation and […]; • further, the method of cell culture is: adjusting the cells to a suitable cell concentration with a complete medium, preferably the cell concentration is 1×10^6/mL, and spreading the cell suspension on a well plate for culture.
When Mia PaCa-2 cells were cultured to the appropriate fusion level, Mia PaCa-2 cells were collected, and the cell density was adjusted to 1×10^6/mL using complete culture medium, the cell suspension was spread on a 96-well plate, 50 μL per well, and placed adherent to the wall in a 37° C., 5% CO2 incubator overnight, compound solutions with different concentrations were prepared using DMSO and complete culture medium, a solvent control was set, the compound solution was added to a 96-well plate, 25 μL per well, and placed in a 37° C., 5% CO2 incubator for 2 hours of continuous culture, the supernatant was discarded from the cell culture plate, 50 μL of lysis solution was added to each well, and lysing was performed for 30 minutes by shaking at room temperature, then the mixture was centrifuged at 1000 rpm for 1 minute, 15 μL of supernatant was transferred to 384 well plate, 5 μL of detection mixture (Eu-labeled anti-ERK1/2 (T202-Y204) antibody with final concentration of 0.5 nM and ULight labeled anti-ERK1/2 antibody with final concentration of 5 nM) was added to each well, centrifuged at 1000 rpm for 1 minute and mixed uniformly, the reaction was carried out overnight at room temperature, the plate was read with BioTek Synergy H1, and the signal values was detected at 620 nm and 665 nm emission wavelengths by time-resolved fluorescence program.
The ratio of the signal values at 665 nm and 620 nm emission wavelength were calculated, and the ratio was used to calculate the inhibition rate, the concentration and the inhibition rate were fitted to a nonlinear regression curve using Graphpad Prism software, then the IC50 value was obtained.

The text below walks through data of patent US12497396B2, “Nitrogen-containing heterocyclic derivatives, method therefor and application therefor as inhibitors of KRAS G12C for the treatment of cancers” (SHANGHAI HANSOH BIOMEDICAL CO., LTD., priority 2019, dated 2025).

Consider `C=CC(=O)N1CCN(c2nc(=O)n(-c3c(C)ccnc3C(C)C)c3nc(-c4c(O)cccc4F)c(F)cc23)[C@@H](C)C1` [AMG-510, reference compound], for which, in experiment [1] (Day 15, 10 mpk oral once a day), the “TGI (%) Day 15” value is reported as 38.02%; the “tumor volume (mm^3, Mean ± SD) Day 15” value amounted to 324 ± 204 mm^3; the “ΔT/ΔC(%) Day 15” value was determined as 61.98%. Moreover, the “tumor volume (mm^3, Mean ± SD) Day 0” value in experiment [1] (baseline Day 0, 10 mpk oral once a day) is listed as 202 ± 72 mm^3.

With `C=CC(=O)N1CCN(c2nc(=O)n(-c3c(SC)ccnc3C(C)C)c3nc(-c4c(N)cccc4F)c(F)cc23)[C@@H](C)C1` [Embodiment 134, 4-((S)-4-acryloyl-2-methylpiperazin-1-yl)-7-(2-amino-6-fluorophenyl)-6-fluoro-1-(2-isopropyl-4-(methylthio)pyridin-3-yl) pyrido [2,3-d] pyrimidin-2 (1H)-one], the figures for the 50% inhibitory concentration (IC50) in experiment [2], in experiment [3] and in experiment [5] were 23 nM, 30 nM and 30 nM, respectively. For the same molecule, in experiment [4] (KRAS G12C protein 5.37 μM with compound 10 μM, 1 hour incubation), the “Tm (° C.)” value turned out to be 64.4 °C. Moreover, in experiment [4] (compound 10 μM, Tm minus Tm of DMSO solvent control), the ΔTm at 10 µM was determined as 15.8 °C.
